Data set [1] in a line: Permeability of compound. It is filed as ADME. Particulars: not told; read-out: permeability.
Data set [2] deals with T1, Aquaporin-9 (Homo sapiens) (UniProt O43315).
T1 sequence (whole entry): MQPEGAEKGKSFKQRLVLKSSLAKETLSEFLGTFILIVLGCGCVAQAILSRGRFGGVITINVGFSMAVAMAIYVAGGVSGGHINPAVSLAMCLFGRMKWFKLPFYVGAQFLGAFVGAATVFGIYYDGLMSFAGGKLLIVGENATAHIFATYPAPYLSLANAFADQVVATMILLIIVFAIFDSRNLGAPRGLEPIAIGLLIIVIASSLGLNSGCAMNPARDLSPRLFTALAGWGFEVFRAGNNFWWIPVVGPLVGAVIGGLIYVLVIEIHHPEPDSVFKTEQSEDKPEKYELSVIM
The data set is described as follows: Inhibition of AQP9 (unknown origin) expressed in xenopus laevis oocytes at 100 uM relative to control. It is filed as cell-based. To be noted: Oocyte.

In data set [3] the target is T2, Aquaporin-4 (Homo sapiens, UniProt P55087). Put plainly: Inhibition of AQP4-M23 (unknown origin) relative to control. To be noted: concentration not given here.
T2 sequence (P55087 whole entry): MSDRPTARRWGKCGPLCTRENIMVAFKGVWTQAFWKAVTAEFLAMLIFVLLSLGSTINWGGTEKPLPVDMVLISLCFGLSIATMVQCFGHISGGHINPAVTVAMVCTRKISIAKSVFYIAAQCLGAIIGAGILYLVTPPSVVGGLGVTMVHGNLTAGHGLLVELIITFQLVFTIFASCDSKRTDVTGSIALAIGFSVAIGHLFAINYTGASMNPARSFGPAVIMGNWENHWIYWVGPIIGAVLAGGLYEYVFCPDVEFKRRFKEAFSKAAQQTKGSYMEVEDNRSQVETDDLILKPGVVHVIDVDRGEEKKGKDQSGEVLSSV
Data set [4] concerns the target T3, Aquaporin-1 (Homo sapiens) (UniProt P29972).
T3 sequence (whole entry): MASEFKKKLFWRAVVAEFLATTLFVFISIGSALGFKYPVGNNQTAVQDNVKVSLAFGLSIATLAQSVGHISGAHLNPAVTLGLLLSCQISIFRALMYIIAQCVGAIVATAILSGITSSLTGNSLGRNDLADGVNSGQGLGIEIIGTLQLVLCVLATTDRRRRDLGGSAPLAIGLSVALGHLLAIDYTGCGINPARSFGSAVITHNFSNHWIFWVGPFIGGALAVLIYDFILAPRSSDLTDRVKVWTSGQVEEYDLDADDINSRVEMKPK
The data set is described as follows: Inhibition of AQP1 (unknown origin) at 20 uM relative to control.

Data set [5] concerns the target T2, Aquaporin-4. Put plainly: Inhibition of AQP4-M23 (unknown origin).
The target of data set [6] is T4, Aquaporin-3 (Homo sapiens, UniProt Q92482).
T4 sequence (Q92482 whole entry): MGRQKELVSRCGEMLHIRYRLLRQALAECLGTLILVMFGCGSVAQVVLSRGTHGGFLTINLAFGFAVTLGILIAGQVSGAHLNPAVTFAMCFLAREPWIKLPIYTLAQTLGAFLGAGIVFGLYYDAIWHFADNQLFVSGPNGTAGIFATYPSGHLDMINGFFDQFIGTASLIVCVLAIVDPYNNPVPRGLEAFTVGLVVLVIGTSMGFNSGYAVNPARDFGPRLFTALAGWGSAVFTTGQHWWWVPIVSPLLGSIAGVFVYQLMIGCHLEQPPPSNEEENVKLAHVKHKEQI
Put plainly: Inhibition of AQP3 (unknown origin).

Data set [7] deals with T4, Aquaporin-3. Put plainly: Inhibition of AQP3 channel in human erythrocyte assessed as inhibition of glycerol permeability. Format: cell-based.
Data set [8] deals with T4, Aquaporin-3. Put plainly: Inhibition of human AQP3 expressed in CHO cells. Format: cell-based.
For a further data set, the target named is T5, Aquaporin-9 (Mus musculus, UniProt Q9JJJ3).
T5 sequence (Q9JJJ3 whole entry): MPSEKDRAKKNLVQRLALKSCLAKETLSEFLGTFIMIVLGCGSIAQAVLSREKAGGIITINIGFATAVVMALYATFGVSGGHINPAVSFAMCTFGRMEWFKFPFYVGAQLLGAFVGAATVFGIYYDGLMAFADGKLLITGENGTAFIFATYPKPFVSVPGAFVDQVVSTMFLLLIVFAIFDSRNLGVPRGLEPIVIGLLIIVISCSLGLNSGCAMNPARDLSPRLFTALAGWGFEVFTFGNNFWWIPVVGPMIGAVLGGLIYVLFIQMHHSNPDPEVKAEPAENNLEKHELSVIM
The data set is described as follows: Inhibition of mouse AQP9.

Data set [9] has as its target T6, Aquaporin-3 (Mus musculus, UniProt Q8R2N1).
T6 sequence (Q8R2N1 whole entry): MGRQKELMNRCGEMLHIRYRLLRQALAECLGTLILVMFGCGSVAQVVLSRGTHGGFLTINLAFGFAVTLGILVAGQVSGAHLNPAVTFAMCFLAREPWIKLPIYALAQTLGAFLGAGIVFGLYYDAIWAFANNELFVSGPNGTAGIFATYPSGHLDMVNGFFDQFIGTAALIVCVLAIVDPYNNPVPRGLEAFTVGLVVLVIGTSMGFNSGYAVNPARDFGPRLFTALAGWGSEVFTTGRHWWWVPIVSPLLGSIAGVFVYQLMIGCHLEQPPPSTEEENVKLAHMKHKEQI
The data set is described as follows: Inhibition of mouse AQP3.

The target in the next data set is T7, Aquaporin-1 (Homo sapiens, UniProt P29972).
T7 sequence (P29972 whole entry): T3 sequence (whole entry)
Put plainly: Binding affinity to AQP1 (unknown origin) expressed in HEK cells assessed as dissociation constant. It is filed as cell-based.

In general, inhibition refers to the relative decrease from the control value, in per cent. A word on the IC50: it is the concentration at which inhibition is half-maximal. For orientation: Kd means the free concentration of one partner at which half of the binding sites on the other are occupied at equilibrium, for simple one-to-one binding.

Consider `O=C(CCc1ccc(O)cc1)c1c(O)cc(O)cc1O` [PHLORETIN], for which the Papp in data set [1] is around 2.8 ×10⁻⁶ cm/s. Moreover, the inhibition in data set [2] amounted to 86%.

With `O=C(Nc1nncs1)c1cccnc1`, the inhibition at Aquaporin-4 [3] turned out to be 73%; in [4], 56%. The molecule further yielded an IC50 at Aquaporin-4 [5] of 3000 nM.

On to `Cc1ccc(CC2(OCCN(C)C)CCC(C(C)(C)C)CC2)cc1` (stereo not drawn), for which the IC50 at Aquaporin-3 [6] worked out at 27000 nM.

As for `CCOC(=O)c1ccc(NC(=O)NCc2ccc(-n3cccn3)cc2)cc1`, the IC50 was around 600 nM at Aquaporin-3 [7], 200 nM on Aquaporin-3 [8], 1100 nM at Aquaporin-9 and 700 nM against Aquaporin-3 [9].

Take `CC(=O)Nc1nnc(S(N)(=O)=O)s1` [ACETAZOLAMIDE]: on Aquaporin-1, the Kd stood at 174000 nM.

With `O=C(Nc1csc([N+](=O)[O-])c1)Nc1c(Cl)cccc1Cl`, the figures for the IC50 at Aquaporin-3 [7] and against Aquaporin-3 [8] were around 200 nM and around 100 nM, respectively.

These data come from ChEMBL document CHEMBL6182835, “Distinctive roles of aquaporins and novel therapeutic opportunities against cancer” (RSC Med Chem, 2025).
